Results reported in patent US6326395A, “Antifungal activity of dicationic molecules” (priority 1999, dated 2001).
≈ marks a conversion by molar mass, not a printed value. Where a name gives a salt, the structure may show the parent alone. Read-outs that look alike come from different tables or passages of the source.

Experiments:
[1] = tested on: Cryptococcus neoformans; assay: in vitro antifungal susceptibility testing (MIC, MFC; broth macrodilution), Tables 1-7; assay type: cell-based; details: for MIC: read-out: MIC80 (Minimum inhibitory concentration 80%); for MFC: read-out: MFC (Minimum fungicidal concentration)
Source text: (§1) The fungi that were employed included two reference strains, C. neoformans var. neoformans H99 and C. albicans A39 and the following clinical isolates: (1) two strains of fluconazole-resistant C. neoformans var. neoformans (135.95 and 114.96); (2) two strains of C. neoformans var. gattii (119.95 and 114.95); (3) two strains of fluconazole-resistant C. albicans (102.96 and 103.96); and (4) one strain each of Torulopsis glabrata (142.91), Candida parapsilosis (111.96), Candida krusei (132.91), C. tropicalis (110.96), Candida lusitaniae (111.92), Fusarium solani (152.89), Aspergillus fumigatus (168.95), and Aspergillus flavus (112.96). Antifungal susceptibility testing was performed using an RPMI-1640 medium (Sigma Chemical Co., St. Louis, Mo.) with glutamine, without sodium bicarbonate, and buffered at pH 7.0 with 0.165 M morpholine-propanesulfonic acid (MOPS).
(§2) In vitro susceptibility testing in the form of Minimum Inhibitory Concentration (MIC) experiments were performed using the broth macrodilution method according to the recommendations of the National Committee for Clinical Laboratory Standards (see 1995 manual). The only difference compared to the standardized procedure was the choice of drug dilutions ranging from 100 to 0.09 μg/ml. Briefly, this procedure specifies an inoculum grown at 35° C. and adjusted to a concentration of 0.5-2.5×10^3 CFU/ml with an incubation of the test performed at 35° C. and reading at 48 hours for all yeasts except for C. neoformans which is interpreted at 72 hr.
(§3) Minimum Fungicidal Concentration (MFC) experiments were adapted from a method by McGinnis (McGinnis, M. R., (1980) "Susceptibility testing and bioassay procedure", p. 431, Academic Press, Inc., New York). Briefly, 10 μl aliquots from tubes with growth inhibition were plated onto Sabouraud agar plates.
(§4) The fungi that were employed included two quality control reference strains, C. neoformans var. neoformansH99 and C. albicans A39 and the following clinical isolates: (1) four strains of C. neoformans var. neoformans (167.95; 135.95; 114.96; and 133.95) of which three were fluconazole-resistant>64 μg/ml (135.95; 114.96; and 133.95); (2) two strains of C. neoformans var. gattii (119.95 and 114.95); (3) two strains of fluconazole-resistant>64 μg/ml C. albicans (102.96 and 103.96); and (4) one strain each of C. glabrata (142.91), Candida parapsilosis (111.96), Candida krusei (132.91), C. tropicalis (110.96), Candida lusitaniae (111.92), Fusarium solani (152.89), Aspergillus fumigatus (168.95), Rhizopus arrhizus (117.89), Paecilomyces lilacinus (137.90), and Aspergillus flavus (112.96). Antifungal susceptibility testing was performed using an RPMI-1640 medium (Sigma Chemical Co., St. Louis, Mo.) with glutamine, without sodium bicarbonate, and buffered at pH 7.0 with 0.165 M morpholinepropanesulfonic acid (MOPS).
as §3, with “p.431,” for “p. 431,”

[2] = tested on: Candida albicans; assay: as above; assay type: cell-based; details: for MIC: read-out: MIC80 (Minimum inhibitory concentration 80%); for MFC: read-out: MFC (Minimum fungicidal concentration)
Source text: as §1, §2, §3, §4
as §3, with “p.431,” for “p. 431,”

[3] = Table 1, three or fewer colonies
[4] = Tables 2-7, three or fewer colonies

## CN(CCCNC(=O)c1ccc(-c2ccc(-c3ccc(C(=O)NCCCN(C)c4ccccc4)cc3)o2)cc1)c1ccccc1 [Compound 36]
[1]; 35° C., 72 hr
  MIC: > 100 µg/mL
[2]; 35° C., reading at 48 hours
  MIC: > 100 µg/mL

## CN1CCN=C1c1ccc(OCCCCOc2ccc(C3=NCCN3C)cc2)cc1 [Compound 15]
[1]; 35° C., 72 hr
  MIC: > 100 µg/mL
[1]; [3]
  MFC: > 100 µg/mL
[2]; 35° C., reading at 48 hours
  MIC: > 100 µg/mL
[2]; three or fewer colonies
  MFC: > 100 µg/mL

## N=C(N)c1ccc(OCCCCCOc2ccc(-c3nc4ccc(C(=N)N)cc4[nH]3)cc2)cc1 [Compound 66]
[1]; 35° C., 72 hr
  MIC: 0.39 µg/mL (≈ 0.854 µM)
[1]; [4]
  MFC: 6.25 µg/mL (≈ 13.7 µM)
[2]; 35° C., reading at 48 hours
  MIC: 0.78 µg/mL (≈ 1.71 µM)
[2]; three or fewer colonies
  MFC: 1.56 µg/mL (≈ 3.42 µM)

## COc1cc(C(=N)N)ccc1OCCCOc1ccc(C(=N)N)cc1OC [Compound 4]
[1]; 35° C., 72 hr
  MIC: 12.5 µg/mL (≈ 33.6 µM)
[1]; [3]
  MFC: 12.5 µg/mL (≈ 33.6 µM)
[2]; 35° C., reading at 48 hours
  MIC: 12.5 µg/mL (≈ 33.6 µM)
[2]; three or fewer colonies
  MFC: 50 µg/mL (≈ 134 µM)

## N=C(N)c1ccc2nc(C=Cc3nc4ccc(C(=N)N)cc4[nH]3)[nH]c2c1 [Compound 32]
[1]; 35° C., 72 hr
  MIC: 1.56 µg/mL (≈ 4.53 µM)
[1]; [4]
  MFC: 3.12 µg/mL (≈ 9.06 µM)
[2]; 35° C., reading at 48 hours
  MIC: 6.25 µg/mL (≈ 18.1 µM)
[2]; three or fewer colonies
  MFC: 12.5 µg/mL (≈ 36.3 µM)

## CC(C)NC(=N)c1cccc(-c2ccc(-c3cccc(C(=N)NC(C)C)c3)o2)c1 [Compound 40]
[1]; 35° C., 72 hr
  MIC: 6.25 µg/mL (≈ 16.1 µM)
[1]; [4]
  MFC: 6.25 µg/mL (≈ 16.1 µM)
[2]; 35° C., reading at 48 hours
  MIC: 100 µg/mL (≈ 257 µM)
[2]; three or fewer colonies
  MFC: > 100 µg/mL

## c1cc2nc(Cc3nc4ccc(C5=NCCN5)cc4[nH]3)[nH]c2cc1C1=NCCN1 [Compound 29]
[1]; 35° C., 72 hr
  MIC: 100 µg/mL (≈ 260 µM)
[1]; [4]
  MFC: > 100 µg/mL
[2]; 35° C., reading at 48 hours
  MIC: > 100 µg/mL
[2]; three or fewer colonies
  MFC: > 100 µg/mL

## N=C(N)c1ccc(NCCCNc2ccc(C(=N)N)cc2N)c(N)c1 [Compound 9]
[1]; 35° C., 72 hr
  MIC: 25 µg/mL (≈ 73.4 µM)
[1]; [3]
  MFC: 50 µg/mL (≈ 147 µM)
[2]; 35° C., reading at 48 hours
  MIC: 12.5 µg/mL (≈ 36.7 µM)
[2]; three or fewer colonies
  MFC: > 100 µg/mL

## CCC(CC)NC(=N)c1ccc(-c2ccc(-c3ccc(C(=N)NC(CC)CC)cc3)o2)cc1 [Compound 26]
[1]; 35° C., 72 hr
  MIC: 12.5 µg/mL (≈ 28.1 µM)
[1]; [4]
  MFC: 12.5 µg/mL (≈ 28.1 µM)
[2]; 35° C., reading at 48 hours
  MIC: 100 µg/mL (≈ 225 µM)
[2]; three or fewer colonies
  MFC: 100 µg/mL (≈ 225 µM)

## N=C(N)c1ccc(NCCCCCCNc2ccc(C(=N)N)cc2N)c(N)c1 [Compound 20]
[1]; 35° C., 72 hr
  MIC: 0.78 µg/mL (≈ 2.04 µM)
[1]; [3]
  MFC: 3.12 µg/mL (≈ 8.16 µM)
[2]; 35° C., reading at 48 hours
  MIC: 0.78 µg/mL (≈ 2.04 µM)
[2]; three or fewer colonies
  MFC: 3.12 µg/mL (≈ 8.16 µM)

## N=C(N)c1ccc(OCCCCCOc2ccc(C(=N)N)cc2)cc1 [Pentamidine, reference compound]
[1]; 72 h
  MIC: 3.12 µg/mL (≈ 9.16 µM)
[1]; [4]
  MFC (Minimum fungicidal concentration): 6.25 µg/mL (≈ 18.4 µM)
[1]
  MFC: 6.25 µg/mL (≈ 18.4 µM)
[2]; 48 h
  MIC: 0.78 µg/mL (≈ 2.29 µM)
[2]
  MFC: 1.56 µg/mL (≈ 4.58 µM)

## N=C(N)c1ccc(OCCCC(O)COc2ccc(C(=N)N)cc2)cc1 (centres unmarked) [Compound 21]
[1]; 35° C., 72 hr
  MIC: 6.25 µg/mL (≈ 17.5 µM)
[1]; [4]
  MFC: 12.5 µg/mL (≈ 35.1 µM)
[2]; 35° C., reading at 48 hours
  MIC: 6.25 µg/mL (≈ 17.5 µM)
[2]; three or fewer colonies
  MFC: 12.5 µg/mL (≈ 35.1 µM)

## N=C(N)c1ccc(OCCCCOc2ccc(C(=N)N)cc2)cc1 [Compound 11]
[1]; 35° C., 72 hr
  MIC: 3.12 µg/mL (≈ 9.56 µM)
[1]; [3]
  MFC: 6.25 µg/mL (≈ 19.1 µM)
[2]; 35° C., reading at 48 hours
  MIC: 25 µg/mL (≈ 76.6 µM)
[2]; three or fewer colonies
  MFC: 50 µg/mL (≈ 153 µM)

## N=C(NC1CCCC1)c1ccc2nc(-c3ccc4oc(-c5nc6ccc(C(=N)NC7CCCC7)cc6[nH]5)cc4c3)[nH]c2c1 [Compound 56, 2,5-Bis[2-(5-N-cyclopentylamidino)benzimidazoyl]benzo[b]furan hydrochloride]
[1]; 35° C., 72 hr
  MIC: 0.78 µg/mL
[1]; [4]
  MFC: 0.78 µg/mL
[2]; 35° C., reading at 48 hours
  MIC: 0.78 µg/mL
[2]; three or fewer colonies
  MFC: 0.78 µg/mL

## CC(C)NC(=N)c1ccc2nc(-c3ccc(CCc4ccc(-c5nc6ccc(C(=N)NC(C)C)cc6[nH]5)cc4)cc3)[nH]c2c1 [Compound 53, 4,4'-Bis[2-(5-N-isopropylamidino)benzimidazoyl]-1,2-diphenylethane hydrochloride]
[1]; 35° C., 72 hr
  MIC: 0.39 µg/mL
[1]; [4]
  MFC: 0.78 µg/mL
[2]; 35° C., reading at 48 hours
  MIC: 1.56 µg/mL
[2]; three or fewer colonies
  MFC: 6.25 µg/mL

## N=C(N)c1cccc(OCCCCOc2cccc(C(=N)N)c2)c1 [Compound 16]
[1]; 35° C., 72 hr
  MIC: 25 µg/mL (≈ 76.6 µM)
[1]; [3]
  MFC: 25 µg/mL (≈ 76.6 µM)
[2]; 35° C., reading at 48 hours
  MIC: 12.5 µg/mL (≈ 38.3 µM)
[2]; three or fewer colonies
  MFC: 25 µg/mL (≈ 76.6 µM)

## N=C(N)c1ccc(OCCCCOc2ccc(-c3nc4ccc(C(=N)N)cc4[nH]3)cc2)cc1 [Compound 65]
[1]; 35° C., 72 hr
  MIC: ≤ 0.09 µg/mL
[1]; [4]
  MFC: 1.56 µg/mL (≈ 3.53 µM)
[2]; 35° C., reading at 48 hours
  MIC: 0.39 µg/mL (≈ 0.881 µM)
[2]; three or fewer colonies
  MFC: 3.12 µg/mL (≈ 7.05 µM)

## N=C(N)c1ccc(Oc2ccc(-c3nc4ccc(C(=N)N)cc4[nH]3)cc2)cc1 [Compound 67]
[1]; 35° C., 72 hr
  MIC: 0.78 µg/mL (≈ 2.11 µM)
[1]; [4]
  MFC: 6.25 µg/mL (≈ 16.9 µM)
[2]; 35° C., reading at 48 hours
  MIC: 0.78 µg/mL (≈ 2.11 µM)
[2]; three or fewer colonies
  MFC: 0.78 µg/mL (≈ 2.11 µM)

## N=C(N)c1ccc(-c2nc3ccc(C(=N)N)cc3[nH]2)cc1 [Compound 60]
[1]; 35° C., 72 hr
  MIC: 25 µg/mL (≈ 89.8 µM)
[1]; [4]
  MFC: 50 µg/mL (≈ 180 µM)
[2]; 35° C., reading at 48 hours
  MIC: 100 µg/mL (≈ 359 µM)
[2]; three or fewer colonies
  MFC: > 100 µg/mL

## N=C(N)c1cccc(OCCCOc2cccc(C(=N)N)c2)c1 [Compound 7]
[2]; 35° C., reading at 48 hours
  MIC: > 100 µg/mL
[2]; three or fewer colonies
  MFC: > 100 µg/mL
